Assay results taken from patent US20250243203A1, “NICOTINAMIDE- AND BENZAMIDE-BASED COMPOUNDS, CONJUGATES, AND COMPOSITIONS AS INHIBITORS OF TRANSLATIONAL- AND TRANSCRIPTIONAL-RELATED KINASES” (PURDUE RESEARCH FOUNDATION, priority 2022, published 2025).
Read-outs that look alike come from different tables or passages of the source.

How the values were obtained:
[1] = molecular target: MNK2 (Homo sapiens, UniProt Q9HBH9); experiment: MNK2 inhibition, in vitro studies at Reaction Biology Corporation; type: biochemical; details: 50 nM compound, 10 uM ATP
[2] = molecular target: T1, AXL receptor tyrosine kinase (AXL) (Homo sapiens, UniProt P30530); experiment: KINOMEscan competition binding assay (Eurofins DiscoverX), AXL
T1 construct: purchased Eurofins DiscoverX (KINOMEscan service)
T1 sequence (P30530 26-894): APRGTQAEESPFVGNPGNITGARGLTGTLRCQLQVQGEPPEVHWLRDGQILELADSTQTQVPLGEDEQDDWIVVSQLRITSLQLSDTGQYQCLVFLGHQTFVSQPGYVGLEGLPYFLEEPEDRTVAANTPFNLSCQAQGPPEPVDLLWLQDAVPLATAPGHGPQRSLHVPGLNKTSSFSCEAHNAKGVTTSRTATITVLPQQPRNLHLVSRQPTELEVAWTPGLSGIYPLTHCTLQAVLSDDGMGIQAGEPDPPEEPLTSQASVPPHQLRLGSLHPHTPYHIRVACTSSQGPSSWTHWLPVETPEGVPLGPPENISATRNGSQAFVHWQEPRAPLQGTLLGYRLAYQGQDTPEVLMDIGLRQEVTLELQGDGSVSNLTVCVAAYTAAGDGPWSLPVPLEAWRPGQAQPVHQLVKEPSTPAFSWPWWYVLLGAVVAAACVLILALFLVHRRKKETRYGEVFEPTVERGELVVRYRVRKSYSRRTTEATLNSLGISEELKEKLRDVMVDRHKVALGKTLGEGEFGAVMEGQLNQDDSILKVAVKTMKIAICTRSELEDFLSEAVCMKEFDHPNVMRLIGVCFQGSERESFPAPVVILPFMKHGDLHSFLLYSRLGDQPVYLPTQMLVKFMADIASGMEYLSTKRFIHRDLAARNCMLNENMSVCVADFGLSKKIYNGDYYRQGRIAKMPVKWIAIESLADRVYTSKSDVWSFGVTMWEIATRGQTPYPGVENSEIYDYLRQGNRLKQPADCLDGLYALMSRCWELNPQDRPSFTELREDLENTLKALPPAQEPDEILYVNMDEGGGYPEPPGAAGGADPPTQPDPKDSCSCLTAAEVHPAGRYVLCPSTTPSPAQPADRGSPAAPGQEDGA
Method: The affinity of several compounds hereof having a substituent on the imidazo[1,2-b]pyridazine moiety at position-6, wherein the substituent comprised one or more ring moieties was evaluated with respect to two TAM kinases: AXL and MERTK. […] The assay uses DNA-tagged kinase, an immobilized ligand, and the test compound. Quantitative polymerase chain reaction (PCR) of the DNT tag was then used to measure the ability of the tested compound to displace the immobilized ligand.

[3] = test system: Caki-1 (renal cancer); experiment: Growth inhibition of Caki-1 (NCI-60 human tumor cell line screen); type: cell-based; details: 200 nM
[4] = test system: MDA-MB-231 (breast cancer); experiment: Growth inhibition of MDA-MB-231 (NCI-60 human tumor cell line screen); type: cell-based
[5] = test system: multiple myeloma cell lines; experiment: Inhibition of multiple myeloma cell lines; type: cell-based, human; details: FIG. 4
[6] = test system: 4T1 (breast) syngeneic tumor; experiment: 4T1 in vivo tumor reduction; parameters: species or system Female Balb-C mice; details: 15 mg/kg orally QD, 5 days on 2 days off
Method: 0.5×10^6 4T1 cells were injected subcutaneously (SQ) into the right flank of Female Balb-C mice. Each group consisted of 5 tumor-bearing mice. 7 days after tumor implantation, mice were dosed orally QD with vehicle control (5% DMSO, 40% PEG300, 5% tween 80, 50% water) or HSND80 (15 mg/Kg). Mice were dosed 5 days on and 2 days off (drug holiday). Tumors were measured every other day (L, W, H) to give tumor volume in mm^3.

[7] = test system: CT-26 C2 tumor cells; experiment: CT-26 in vivo tumor reduction; parameters: species or system BALB/c female mouse; details: CT-26, day 17 from start of dosing, oral QD
Method: Each BALB/c female mouse was inoculated subcutaneously at the right flank with CT-26 C2 tumor cells (0.3×10^6/mouse) in 0.1 mL PBS for tumor development. Treatments for the efficacy study were started on day 10 after tumor inoculation when the average tumor size reached approximately 71 mm^3. Each group consisted of 6 tumor-bearing mice. Vehicle control was 25 mM citrate buffer (pH 2.5). HSND80 was dosed orally QD at 15 mg/Kg for 4 days and 10 mg/Kg afterwards. HSND100 was dosed at 15 mg/Kg. Mice were dosed 5 days on and 2 days off (drug holiday). Tumors were measured every other day (L, W, H) to give tumor volume in mm^3.

Chain of MNK2 (Q9HBH9 whole entry): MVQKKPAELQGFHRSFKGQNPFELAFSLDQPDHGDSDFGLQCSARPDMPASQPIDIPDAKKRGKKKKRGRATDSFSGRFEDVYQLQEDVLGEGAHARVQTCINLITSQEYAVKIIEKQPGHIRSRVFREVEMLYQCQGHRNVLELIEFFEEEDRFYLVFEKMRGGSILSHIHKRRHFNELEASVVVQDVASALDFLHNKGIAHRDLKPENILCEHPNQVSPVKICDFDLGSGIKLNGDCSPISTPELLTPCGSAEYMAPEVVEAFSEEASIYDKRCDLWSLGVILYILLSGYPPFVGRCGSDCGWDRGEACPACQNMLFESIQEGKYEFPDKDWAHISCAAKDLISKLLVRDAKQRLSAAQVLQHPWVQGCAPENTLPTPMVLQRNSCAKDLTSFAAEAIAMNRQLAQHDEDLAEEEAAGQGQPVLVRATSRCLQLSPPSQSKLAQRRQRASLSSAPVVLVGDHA

## C[C@@H]1CN(c2ccc3ncc(C#Cc4cncc(C(=O)Nc5ccc(CN6CCN(C)CC6)c(C(F)(F)F)c5)c4)n3n2)C[C@H](C)O1 [HSND80, 5-((6-((2S,6R)-2,6-Dimethylmorpholino)imidazo[1,2-b]pyridazin-3-yl)ethynyl)-N-(4-((4-methylpiperazin-1-yl)methyl)-3-(trifluoromethyl)phenyl)nicotinamide]
[1]
  inhibition at 0.05 µM: 96%
[2]; FIG. 6A, replicate 1, read-out: Kd AXL, replicate 1
  Kd: 0.77 nM
[2]; FIG. 6B, replicate 2, read-out: Kd AXL, replicate 2
  Kd: 1.3 nM
[2]; Table 1, DiscoverX Eurofins, read-out: Kd AXL
  Kd: 1.1 nM
[3]
  inhibition at 0.2 µM: 100%
[4]; 200 nM
  inhibition at 0.2 µM: 100%
[4]; 72 hours
  IC50: 8.6 nM
[5]
  inhibition of multiple myeloma cell lines: potently inhibited
[6]
  reduction of growth of 4T1 tumor: ~60%
[7]
  tumor reduction compared to vehicle control: 45%
